According to a melting point compilation (Tetko et al.; mined from patent text by program, amines drawn as free bases though some values may be those of a salt):

| SMILES | melting point |
| --- | --- |
| Cc1cc(-n2c(=O)[nH]c3ccccc32)cc2c1NC(=O)CC2C (stereo not given) | 250 to 254 °C |
| NC(=O)CON=C(C(=O)O)c1ccco1 | 143 to 145 °C |
| CC(C)c1nn(-c2ccc(C(F)(F)F)cn2)cc1CCCO | 87 to 88 °C |
| CCOC(=O)CN1CC2CCC(=O)N2C1=O (stereo not given) | 99 to 101 °C |
| CCCCCCCNC(=O)Nc1ccc(-n2cccn2)cc1C(=O)NCC1CCN(C(c2ccccc2)c2ccccc2)CC1 | 176 to 178 °C |
| COC[C@H]1CCCN1C(=O)c1cc(-c2ccccc2)c(=O)n2c1-c1sccc1C2 | 150 to 152 °C |
| CCCCC(Cc1ccc(OCCNC(=O)c2ccc(-c3ccc(CN(C)C)cc3)cc2)cc1)C(=O)O (stereo not given) | 125 to 127 °C |
| CCOC(=O)C(=CNC(C)(C)C)C(=O)c1cc(F)c(F)c(F)c1F | 112 °C |
| Nc1ccccc1N1CCN(CCCOc2cccc3c2CCCC3)CC1 | 100 to 101 °C |
| CCOC(=O)C(=C(c1ccc(F)cc1)c1ccc(F)cc1)c1nnnn1C | 144 to 145 °C |
| Fc1cc(CC2(Cc3ccncc3)c3ccccc3-c3sccc32)ccn1 (stereo not given) | 117 to 119 °C |
| CS(=O)(=O)NCc1ccc([N+](=O)[O-])cc1 | 136 to 139 °C |
| O=C(O)c1nn(-c2c(Cl)cc(C(F)(F)F)cc2Cl)cc1OC(F)(F)C(F)Cl (racemic) | 149 to 159 °C |
| Cc1cc2c(cc1Cl)C(NCCC1CCN(C(=O)OC(C)(C)C)CC1)(c1ccccc1Cl)C(=O)N2 (stereo not given) | 245 to 248 °C |
| O=[N+]([O-])c1cnc(Sc2nc(-c3ccc(Cl)cc3)n[nH]2)s1 | 181 to 184 °C |
| O=C(NCCCCN1CCC(c2ccc3c(c2OCCO)CCCC3)CC1)c1sc(-c2ccc(C(F)(F)F)cc2)nc1CO | 157 to 159 °C |
| O=C(NCC(=O)N1c2ccccc2N(Cc2ccccc2)C(=O)[C@H]2CCC[C@H]21)c1ccccc1[N+](=O)[O-] (relative stereo) | 132 to 135 °C |
| CCCn1nc(C(C)C)c(C(=O)OCc2ccccc2C(=O)c2ccccc2)c1Cc1ccc(-c2ccccc2S(=O)(=O)NC(=O)OC(C)(C)C)c(F)c1 | 57 to 61 °C |
| O=C(C(Cl)Cl)N1CCC2(CC1)OCCO2 | 102 °C |
| COc1nc(C)c(N2CCCn3c2nc2c(Cl)ccc(C(OC(F)F)C(F)(F)F)c23)c(C)n1 (stereo not given) | 169 to 170 °C |
| O=C(O)CCc1oc(SCc2ccccn2)nc1-c1ccc(Cl)cc1 | 125 to 126 °C |
| COCC(=O)Nc1cccc(NC(=O)COC)c1 | 110 to 111 °C |
| O=c1[nH]c2cc(Cl)ccc2c(CCc2nnn[nH]2)c1-c1ccccc1 | 231 to 233 °C |
| O=S(=O)(NC=NCCCOc1cccc(CN2CCCCC2)c1)c1ccc(Cl)cc1 | 75 to 79 °C |

| SMILES | melting point |
| --- | --- |
| COC=Nc1cc(-c2ncon2)nn1-c1c(Cl)cc(C(F)(F)F)cc1Cl | 113 to 114 °C |
| CN(CCOc1ccc(CC(F)C(N)=O)cc1)c1nc2ccccc2o1 (stereo not given) | 168 to 170 °C |
| NCCc1cc(-c2ccccc2)n(-c2ccc(S(N)(=O)=O)cc2)n1 | 189 to 192 °C |
| CC[C@H](C)[C@@H](CO)NC(=O)C[C@H](O)[C@H](CC(C)C)NC(=O)[C@H](CC(C)C)NC(=O)[C@H](Cc1cccc2ccccc12)NC(=O)OCc1ccccc1 | 206 to 212 °C |
| CC(C)(C)c1ccc(S(=O)(=O)N2c3ccccc3C[C@H]2C(=O)NCc2cccc(O)c2)cc1 | 94 °C |
| O=C1CCCc2ccc(OCc3ccc4ccccc4n3)cc21 | 98.5 to 102 °C |
| CCOC(=O)c1cn(C)c2cnc3cc(N4CCN(c5ccc(F)cc5)CC4)c(F)cc3c2c1=O | 300 °C |
| COC(=O)C(C)(C)OCC#Cc1cc(C(F)(F)F)ccc1NS(=O)(=O)c1ccc2c(c1)CCN2C(C)=O | 134 to 136 °C |
| Cc1c(NC(=O)c2ccc(CC(=O)C3CCCO3)cc2)ccc2cc(CN3CCCC3)cnc12 (stereo not given) | 102 °C |
| COC(=O)c1c(S(C)(=O)=O)ccc(C(=O)O)c1Cl | 160 to 162 °C |
| CCc1cc(C(C)=O)c(O)cc1OCCCCCn1cncn1 | 87 °C |
| Brc1ccccc1-c1nnnn1C(c1ccccc1)(c1ccccc1)c1ccccc1 | 160 to 162 °C |
| S=c1[nH]c2cccc(OCCNCc3cccc4ccccc34)c2[nH]1 | 191 to 193 °C |
| CC(C)C(=O)CNC(=O)c1ccc(F)cc1 | 107 to 108 °C |
| c1cc(CN2CCCCC2)cc(OCCCNc2nnc3ccccn23)c1 | 150 to 151 °C |
| O=C(O)c1cc(-c2ccc3c(c2)CCO3)nn(Cc2ccc(Cl)cc2)c1=O | 200 to 210 °C |
| CSc1ccc(NC(=O)N(O)C(C)C)cc1 | 150 °C |
| Oc1cc(C2CC2)[nH]n1 | 213 to 215 °C |
| COc1ccccc1NC(=O)Nc1nc(Nc2ccccc2-c2ccccc2)nc(N2CCCC(C(=O)O)C2)n1 (stereo not given) | 245 to 247 °C |
| CC(C)N(NC(=O)OC(C)(C)C)C(=O)NCC(F)(F)F | 90 to 94 °C |
| CC(=O)c1ccc(SCC(=O)O)cc1 | 151 to 153 °C |
| COc1cc2c(cc1OC)CN(CCc1ccc(NC(=O)c3cccc4c(=O)c5cccc(OC)c5sc34)cc1)CC2 | 218 to 219 °C |
| CN1C(=O)CC[C@]2(C)c3ccc(NC(=O)c4ccc([N+](=O)[O-])cc4)cc3CC[C@@H]12 | 269 to 270 °C |
| CN(Cc1ccccc1)c1sc(-c2ccncc2)c2c1C(=O)CC2 | 145 to 147 °C |

| SMILES | melting point |
| --- | --- |
| CCCC(C)n1sc2ccccc2c1=O (stereo not given) | 52 to 54 °C |
| COCCOC(=O)c1ccc(C(C(N)=O)C(C)c2ccccc2N2CCCCC2)cc1 (stereo not given) | 155 to 157 °C |
| CC(=O)c1ccc(OCC(C)(O)C(=O)Nc2ccc([N+](=O)[O-])c(C)c2)cc1 (stereo not given) | 153 to 155 °C |
| CC1(C)C(=O)Nc2cc3[nH]c(N)nc3cc21 | 300 to 305 °C |
| COC(=O)C(Cc1cc(Br)c(S(=O)(=O)c2ccc(OC)c(C(C)C)c2)c(Br)c1)C(=O)OC | 121 to 123 °C |
| CC(C)OC(=O)c1ccc(Nc2cccc(N3CCCCC3)c2)c([N+](=O)[O-])c1 | 160 to 161 °C |
| CCC1(CCCCCl)C(=O)Nc2cc(F)c(Cl)cc21 (stereo not given) | 131 to 133 °C |
| NC(=O)c1cc(-c2ccncc2)sc1-c1ccncc1 | 240 to 242 °C |
| Cc1cc(F)ccc1-c1ccc(S(=O)(=O)N2c3ccccc3CC2C(=O)NCCOc2ccc(C(=O)OC(C)(C)C)cc2)cc1 (stereo not given) | 84 °C |
| O=c1[nH]c2ccccc2c2cc(CO)nn12 | 286 to 288 °C |
| C#CC[C@@H](N)c1nc2cc(Cl)ccc2c(=O)n1Nc1ccccc1 | 175 to 180 °C |
| O=S1NC(Cc2coc3ccccc23)=NO1 (stereo not given) | 138 to 140 °C |
| O=C(N[C@H]1CN(Cc2ccccc2)[C@@H]2CCO[C@H]12)C(F)(F)F (relative stereo) | 150 to 154 °C |
| COc1ccc2c(CCN3CCCCC3=O)c[nH]c2c1 | 146 °C |
| CC(C)C(NC(=O)OCc1nccs1)C(=O)NC(Cc1ccccc1)C(O)C(Cc1ccccc1)NC(=O)C(NC(=O)OCc1nccs1)C(C)C (stereo not given) | 92 to 93 °C |
| FC(F)(F)c1cc(-n2cc(/C=C/c3nnn[nH]3)c(-c3cccc(Cl)c3)n2)cc(C(F)(F)F)c1 | 228 to 229 °C |
| O=S(=O)(Oc1ccc(-c2cc3ccccc3[nH]2)cc1O)c1ccccc1 | 158 °C |
| COc1ccc(C2CC(C(C)(C)C)=NN2c2ccc(C(=O)O)cc2)c(OC)c1 (stereo not given) | 214 °C |
| CC(C)Cc1c2c(nn1C)c(N)nc1ccccc12 | 213 to 214 °C |
| CCn1c(=O)c2c(nc(/C=C/c3cc4c(cc3Br)OCO4)n2C)n(CC)c1=O | 255 to 256 °C |
| O=C(OCCOCc1ccccc1)c1cc(Oc2ccc(C(F)(F)F)cc2Cl)ccc1[N+](=O)[O-] | 85 °C |
| CC(=O)OCc1c(C(=O)C(=O)O)c2cc(-c3cccc(C)c3)ccc2n1Cc1ccc(C)cc1 | 89 to 90 °C |
| CC1CCc2c(N3CCNCC3)ccc3c2N1C=C(C(=O)O)C3 (stereo not given) | 264 to 265 °C |
| CCN1C(=O)CC(=O)N(c2ccccc2)c2cc(Cl)ccc21 | 220 to 222 °C |

| SMILES | melting point |
| --- | --- |
| CCCCC(CC)NC1=NS(=O)(=O)c2sc(Cl)cc2N1 (stereo not given) | 165 to 168 °C |
| CCCc1nc(C(N)=O)c2n1-c1ccc(Cl)cc1C(c1ccccc1Cl)=NC2 | 298 to 300 °C |
| OC(c1ccc(OCc2ccccc2)cc1)C(F)(F)F (stereo not given) | 115 to 117 °C |
| CCCn1c(=O)c2[nH]c(C34CCC(C)(C(=O)C3=O)C4(C)C)nc2n(CCC)c1=O (stereo not given) | 200 to 201 °C |
| CC(=C1SC(=O)NC1=O)c1ccc(NCCOc2c(-c3ccc(F)cc3)n(C)c3ccccc3c2=O)cc1 | 130 to 132 °C |
| O=C(O)c1ccc(COc2ccc3cc(-c4csc(-c5ccccc5)n4)ccc3c2Br)cc1 | 268 to 270 °C |
| CCOC(=O)C(=O)Nc1cc(OC)cc(NC(=O)C(=O)OCC)n1 | 155 to 156 °C |
| CCOC(=O)C(C)=NNc1ccc(C)cc1C | 146 °C |
| CCOC(=O)c1cc(=O)c2ccc(OCCCCCOc3ccc(C(C)=O)c(O)c3)cc2o1 | 136 to 137 °C |
| CCCCCCCCCc1ccc(C(Sc2cccc(NC(=O)CC(=O)OC)c2)C(=O)CCCC(=O)OC)cc1 (stereo not given) | 88 to 91 °C |
| NC(=S)C1(c2ccccn2)CCCS1 (stereo not given) | 192 °C |
| Cc1ccc(C2CCN(C(=O)Nc3ccc4nc(CN5C(C)(C)CCCC5(C)C)ccc4c3)CC2)cc1 | 200 to 202 °C |
| COc1ccccc1C1CC(=O)Oc2ccc(C)cc21 (stereo not given) | 140 °C |
| O=C(O)c1cn(-c2ccc(F)cc2)c2cc(N3CCNC(c4ccco4)C3)c(F)cc2c1=O (stereo not given) | 242 °C |
| COc1cccc(C(F)(F)F)c1NS(=O)(=O)c1nc2nc(O)cc(O)n2n1 | 237 to 243 °C |
| CC1Cc2c(N3CCN(CC(F)(F)F)CC3)c(F)cc3c(=O)c(C(=O)O)cn1c23 (stereo not given) | 287 to 289 °C |
| O=C(N1CCNc2ccccc2C1)n1ccnc1 | 98 to 101 °C |
| CCOC(=O)/C(=C\Nc1cc(OC)ccc1OC)c1ccccc1 | 93 to 94 °C |
| CC(C)(NC(N)=O)C(=O)NCCO[N+](=O)[O-] | 98 to 100 °C |
| COC(=O)C(Oc1cc(OCc2ccsc2)ccc1C#N)c1ccccc1F (racemic) | 104 to 106 °C |
| CCn1c(=O)c2conc2n(C)c1=O | 87 to 88 °C |
| N#CCc1cccc2c(-c3ccc(F)cc3)onc12 | 158 to 160 °C |
| CC(=O)OC1CSC(Sc2ccc3ccccc3c2)C(OC(C)=O)C1OC(C)=O (stereo not given) | 151 °C |
